Where “and” joins values, the source holds several entries; their conditions need not be identical. Equal entries are not always repeated. Entries after “also recorded” stand apart in the source; their conditions may differ.
Experiments:
[1] = system: cleaved caspase-3 (CC3); experiment: Cleaved caspase-3 in RS4;11 tumours by MSD ELISA; assay type: in vivo, C.B-17 SCID mouse
Method: Tumours were excised, snap frozen in liquid nitrogen and stored at –80 °C. Tumours were homogenised in lysis buffer containing protease and phosphatase inhibitors, protein concentration determined by Pierce BCA Protein Assay Kit and diluted in lysis buffer to a protein concentration of 0.4 μg/μL. Cleaved caspase-3 (CC3) was measured using the mesoscale cleaved caspase-3 (Asp175) assay whole cell lysate kit according to manufacturer’s instructions. Induction of CC3 was expressed as fold change of treated tumours over vehicle control.

[2] = system: RS4;11 xenograft; experiment: RS4;11 mouse xenograft efficacy (tumour volume); assay type: in vivo, C.B-17 SCID mouse; parameters: key to tumour volume, individual animals: tumour volume in mm³, length × width²/0.52; settings: for tumour volume, individual animals: 20 mg/kg AZD4320
Method: Female C.B.−17 SCID mice were purchased from Charles River Laboratories. Mice were 5–8 weeks old at the time of tumour implantation. All xenograft studies were conducted at our Association for the Assessment and Accreditation of Laboratory Animal Care accredited facility in Waltham, MA in accordance with ethical regulations described in the guidelines established by the internal Institutional Animal Care and Use Committee. The dendrimer conjugates were formulated in citrate/phosphate buffer pH 5.0, diluted 1:10 with 5% glucose containing 1% w/v Kolliphor HS15, and AZD4320 was formulated in 30% HP-β-CD and dosed as a weekly intravenous (IV) administration at a volume of 5 ml/kg at the indicated doses. Five million RS4;11, five million SUDHL-4 or five million OCI-LY-10 cells were injected subcutaneously in the right flank of mice in a volume of 0.1 ml. Tumour volumes (measured by caliper), animal body weight, and tumor condition were recorded twice weekly for the duration of the study. The tumour volume was calculated (taking length to be the longest diameter across the tumour and width to be the corresponding perpendicular diameter) using the formula: length (mm) x width (mm)^2/0.52. For efficacy studies, mice were randomized based on tumour volumes using stratified sampling and enrolled into control and treatment groups. Tumour growth inhibition from the start of treatment was quantified by measuring the difference in tumour volume between control and treated groups. Survival analysis was evaluated using Mantel-Cox test. Tumours were also taken for bioanalysis.

[3] = system: telemetered rats; experiment: Conscious rat telemetry (QRS amplitude, blood pressure, tolerability); settings: telemetered rat; AZD4320 10 mg/kg, conjugates 30 mg/kg IV;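 also: male Han Wistar rats carrying implanted telemetry transmitters, with ECG and arterial pressure recorded continuously while unrestrained in their home cage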
Excerpt: Male Han Wistar rats were implanted with HD‐S11 transmitters (Data Sciences International, St. Paul, MN USA) under isoflurane anaesthesia, the telemetry transmitter was placed in the peritoneal cavity, the arterial blood pressure catheter was placed in the terminal abdominal aorta and the ECG electrodes were sutured, one at the dorsal surface of the xiphoid process and one at the anterior mediastinum, close to the right atrium[42]. Animals were allowed to recover for at least 2 weeks and were around 2–3 months at the time of experimentation. The animals were pair‐housed in standard rat cages with a non‐instrumented companion throughout the study. Cages were prepared with bedding material and enrichment.
Telemetry recordings took place in the home cage. […] The animals were removed from the cage temporarily for dosing and blood sampling. Animals were not subject to restraint except where dosing and blood sampling was performed. Data acquisition used Dataquest Open A.R.T.™ with HEM software version 4.2 (Notocord Inc).
For evaluation of AZD4320, n = 8 rats received single doses of 0 (vehicle: 30% Kleptose, pH9) or 10 mg/kg AZD4320, administered as a 30-min intravenous infusion. A cross-over study design was used, with an interval of 7 days between treatments.
Data for all parameters were collected continuously during the recording period. The continuous data from each animal was binned into chosen time intervals of varying length and averaged to generate a single data point for each reported nominal time. Each reported nominal timepoint was then averaged across each of the animals tested for each dose level.

## AZD4320-MIDA-PEG2100 [AZD0466]
[1]; RS4;11, single dose AZD0466 34 mg/kg (10mg/kg AZD4320), 3 hr
  CC3 PD fold over vehicle, individual tumours: 1.1 fold over vehicle (2×) and 0.9 fold over vehicle
[1]; RS4;11, single dose AZD0466 34 mg/kg (10mg/kg AZD4320), 8 hr
  CC3 PD fold over vehicle, individual tumours: 1.1 fold over vehicle and 1.5 fold over vehicle and 1 fold over vehicle
[1]; RS4;11, single dose AZD0466 34 mg/kg (10mg/kg AZD4320), 24 hr
  CC3 PD fold over vehicle, individual tumours: 12.2 fold over vehicle and 4.6 fold over vehicle and 5.3 fold over vehicle
[1]; RS4;11, single dose AZD0466 34 mg/kg (10mg/kg AZD4320), 48 hr
  CC3 PD fold over vehicle, individual tumours: 8.7 fold over vehicle and 9 fold over vehicle and 11 fold over vehicle
[1]; RS4;11, single dose AZD0466 34 mg/kg (10mg/kg AZD4320), 72 hr
  CC3 PD fold over vehicle, individual tumours: 1.8 fold over vehicle and 1.4 fold over vehicle and 2.1 fold over vehicle
[1]; RS4;11, single dose AZD0466 103 mg/kg (30mg/kg AZD4320), 3 hr
  CC3 PD fold over vehicle, individual tumours: 6.8855 fold over vehicle and 4.506 fold over vehicle and 6.287 fold over vehicle
[1]; RS4;11, single dose AZD0466 103 mg/kg (30mg/kg AZD4320), 8 hr
  CC3 PD fold over vehicle, individual tumours: 52.0454 fold over vehicle and 56.5349 fold over vehicle and 45.3617 fold over vehicle
[1]; RS4;11, single dose AZD0466 103 mg/kg (30mg/kg AZD4320), 24 hr
  CC3 PD fold over vehicle, individual tumours: 82.2669 fold over vehicle and 79.7603 fold over vehicle and 78.3412 fold over vehicle
[1]; RS4;11, single dose AZD0466 103 mg/kg (30mg/kg AZD4320), 48 hr
  CC3 PD fold over vehicle, individual tumours: 33.7478 fold over vehicle and 42.9825 fold over vehicle and 23.216 fold over vehicle
[1]; RS4;11, single dose AZD0466 103 mg/kg (30mg/kg AZD4320), 72 hr
  CC3 PD fold over vehicle, individual tumours: 7.7976 fold over vehicle and 4.512 fold over vehicle and 6.025 fold over vehicle
[2]; Day 38, listed as SPL-8977, 20 mg/kg, in mm³ (unit assumed)
  tumour volume, individual animals: 600 and 609 and 679 and 641
[2]; Day 41, listed as SPL-8977, 20 mg/kg, in mm³ (unit assumed)
  tumour volume, individual animals: 419 and 480 and 364 and 544
[2]; Day 45, listed as SPL-8977, 20 mg/kg
  tumour volume, individual animals: 0 (2×) and 133 and 130
[2]; Day 48, listed as SPL-8977, 20 mg/kg
  tumour volume, individual animals: 0 (3×) and 75
[2]; Day 52, listed as SPL-8977, 20 mg/kg
  tumour volume, individual animals: 0 (3×) and 134
[2]; Day 55, in mm³ (unit assumed)
  tumour volume, individual animals: 0
[2]; Day 59, listed as SPL-8977, 20 mg/kg
  tumour volume, individual animals: 0 (2×) and 122 and 66
[2]; Day 63, listed as SPL-8977, 20 mg/kg, in mm³ (unit assumed)
  tumour volume, individual animals: 275 and 244 and 0 and 343
[2]; Day 66, listed as SPL-8977, 20 mg/kg, in mm³ (unit assumed)
  tumour volume, individual animals: 255 and 188 and 196 and 333
[2]; Day 69, listed as SPL-8977, 20 mg/kg, in mm³ (unit assumed)
  tumour volume, individual animals: 384 and 259 and 193 and 637
[2]; Day 73, listed as SPL-8977, 20 mg/kg, in mm³ (unit assumed)
  tumour volume, individual animals: 574 and 450 and 240 and 837
[2]; RS4;11
  AZD4320-equivalent dose of dendrimer conjugate needed to match efficacy of AZD4320: approximately twice the dose
[2]; RS4;11, 20 mg/kg AZD4320 equivalent dose vs SPL-8932 20 mg/kg equivalent and AZD4320 10 mg/kg
  magnitude of in vivo efficacy: comparable to that of SPL-8932 and AZD4320
[2]; RS4;11, AZD0466 10 mg/kg (3mg/kg AZD4320), day 41
  Tumour volume, Geo Mean: 492.913
[2]; RS4;11, AZD0466 10 mg/kg (3mg/kg AZD4320), day 44
  Tumour volume, Geo Mean: 317.328
[2]; RS4;11, AZD0466 10 mg/kg (3mg/kg AZD4320), day 48
  Tumour volume, Geo Mean: 5.078
[2]; RS4;11, AZD0466 10 mg/kg (3mg/kg AZD4320), day 51
  Tumour volume, Geo Mean: 2.414
[2]; RS4;11, AZD0466 10 mg/kg (3mg/kg AZD4320), day 55
  Tumour volume, Geo Mean: 1
[2]; RS4;11, AZD0466 10 mg/kg (3mg/kg AZD4320), day 58
  Tumour volume, Geo Mean: 49.5834
[2]; RS4;11, AZD0466 10 mg/kg (3mg/kg AZD4320), day 63
  Tumour volume, Geo Mean: 177.592
[2]; RS4;11, AZD0466 10 mg/kg (3mg/kg AZD4320), day 66
  Tumour volume, Geo Mean: 258.58
[2]; RS4;11, AZD0466 10 mg/kg (3mg/kg AZD4320), day 70
  Tumour volume, Geo Mean: 353.377
[2]; RS4;11, AZD0466 10 mg/kg (3mg/kg AZD4320), day 73
  Tumour volume, Geo Mean: 450.085
[2]; RS4;11, AZD0466 10 mg/kg (3mg/kg AZD4320), day 77
  Tumour volume, Geo Mean: 770.449
[2]; RS4;11, AZD0466 10 mg/kg (3mg/kg AZD4320), day 80
  Tumour volume, Geo Mean: 703.796
[2]; RS4;11, AZD0466 10 mg/kg (3mg/kg AZD4320), day 83
  Tumour volume, Geo Mean: 919.497
[2]; RS4;11, AZD0466 34 mg/kg (10mg/kg AZD4320), day 41
  Tumour volume, Geo Mean: 491.258
[2]; RS4;11, AZD0466 34 mg/kg (10mg/kg AZD4320), day 44
  Tumour volume, Geo Mean: 242.554
[2]; RS4;11, AZD0466 34 mg/kg (10mg/kg AZD4320), day 48
  Tumour volume, Geo Mean: 1.95
[2]; RS4;11, AZD0466 34 mg/kg (10mg/kg AZD4320), day 51
  Tumour volume, Geo Mean: 1
[2]; RS4;11, AZD0466 34 mg/kg (10mg/kg AZD4320), day 55
  Tumour volume, Geo Mean: 1
[2]; RS4;11, AZD0466 34 mg/kg (10mg/kg AZD4320), day 58
  Tumour volume, Geo Mean: 1
[2]; RS4;11, AZD0466 34 mg/kg (10mg/kg AZD4320), day 63
  Tumour volume, Geo Mean: 24.9155
[2]; RS4;11, AZD0466 34 mg/kg (10mg/kg AZD4320), day 66
  Tumour volume, Geo Mean: 88.4785
[2]; RS4;11, AZD0466 34 mg/kg (10mg/kg AZD4320), day 70
  Tumour volume, Geo Mean: 55.1235
[2]; RS4;11, AZD0466 34 mg/kg (10mg/kg AZD4320), day 73
  Tumour volume, Geo Mean: 52.3606
[2]; RS4;11, AZD0466 34 mg/kg (10mg/kg AZD4320), day 77
  Tumour volume, Geo Mean: 71.4432
[2]; RS4;11, AZD0466 34 mg/kg (10mg/kg AZD4320), day 80
  Tumour volume, Geo Mean: 194.327
[2]; RS4;11, AZD0466 34 mg/kg (10mg/kg AZD4320), day 83
  Tumour volume, Geo Mean: 206.49
[2]; RS4;11, AZD0466 103 mg/kg (30mg/kg AZD4320), day 41
  Tumour volume, Geo Mean: 495.68
[2]; RS4;11, AZD0466 103 mg/kg (30mg/kg AZD4320), day 44
  Tumour volume, Geo Mean: 271.066
[2]; RS4;11, AZD0466 103 mg/kg (30mg/kg AZD4320), day 48
  Tumour volume, Geo Mean: 1.967
[2]; RS4;11, AZD0466 103 mg/kg (30mg/kg AZD4320), day 51
  Tumour volume, Geo Mean: 1
[2]; RS4;11, AZD0466 103 mg/kg (30mg/kg AZD4320), day 55
  Tumour volume, Geo Mean: 1
[2]; RS4;11, AZD0466 103 mg/kg (30mg/kg AZD4320), day 58
  Tumour volume, Geo Mean: 1
[2]; RS4;11, AZD0466 103 mg/kg (30mg/kg AZD4320), day 63
  Tumour volume, Geo Mean: 5.6048
[2]; RS4;11, AZD0466 103 mg/kg (30mg/kg AZD4320), day 66
  Tumour volume, Geo Mean: 13.7221
[2]; RS4;11, AZD0466 103 mg/kg (30mg/kg AZD4320), day 70
  Tumour volume, Geo Mean: 40.3244
[2]; RS4;11, AZD0466 103 mg/kg (30mg/kg AZD4320), day 73
  Tumour volume, Geo Mean: 44.9682
[2]; RS4;11, AZD0466 103 mg/kg (30mg/kg AZD4320), day 77
  Tumour volume, Geo Mean: 64.9706
[2]; RS4;11, AZD0466 103 mg/kg (30mg/kg AZD4320), day 80
  Tumour volume, Geo Mean: 64.3873
[2]; RS4;11, AZD0466 103 mg/kg (30mg/kg AZD4320), day 83
  Tumour volume, Geo Mean: 200.25
[2]; RS4;11, highest dose (30 mg/kg AZD4320-equivalent)
  animals remaining tumour free for up to 6 weeks: 2/6
[2]; RS4;11, weekly IV, 10 mg/kg and 30 mg/kg AZD4320-equivalent
  regression during treatment period: Complete tumour regression
[2]; RS4;11, weekly IV, 3, 10 and 30 mg/kg AZD4320-equivalent dose, each dose group
  tumour regression: tumour regression in all 6 mice
[3]
  effect on QRS amplitude: no effect on QRS amplitude; also recorded: no reduction in QRS amplitude; also recorded: negligible effect on QRS amplitude
